Experimental data published in patent publication US20120157478A1, “Hair Care Compositions and Methods to Improve Hair Appearance” (priority 2010, published 2012).

Tested on: primary human dermal papilla cells
Test: Survival of metabolically stressed primary human dermal papilla cells (ATP, Cell Titer Glo)
Format: cell-based
Conditions: for Survival: 48 hr stress, Vehicle = 1.00; for benefit in increasing the survival of stressed dermal papilla cells (in words): additional testing, individual components versus mixture of the three
Excerpt: The dermal papilla, in normal human hair, is the control center for hair diameter and growth. Increasing survival of dermal papilla cells in situ leads to increased hair diameter and to a longer anagen phase which results in longer hair, a higher hair density, and potentially delayed emergence of gray hair. The appearance of this hair results in healthier, younger looking hair. Accordingly, an increase in survival of dermal papilla cells correlates with healthier hair showing an increase in hair diameter, longer hair, higher hair density, and a delayed on-set of gray hair.
Primary human dermal papilla cells were metabolically stressed for 48 hours in reduced standard tissue culture media. During this period of stress the cells were treated with the mixtures below. After 48 hr the metabolic activity of the cells was measured by the amount of ATP using the Cell Titer Glo™ kit (Promega).

## Cn1c(=O)c2c(ncn2C)n(C)c1=O [Caffeine, caffeine]
Caffeine 0.02%, first series
  Survival: 0.94
Caffeine 0.05%, second series
  Survival: 0.98
  benefit in increasing the survival of stressed dermal papilla cells (in words): little benefit

## O=c1cc(-c2ccc(O)cc2)oc2cc(O)cc(O)c12 [apigenin, 5,7-Dihydroxy-2-(4-hydroxyphenyl)-4H-1-benzopyran-4-one]
Metabolically stressed 48 hr in reduced standard tissue culture media, ATP by Cell Titer Glo, concentrations not given
  increase in the hair follicle cells that survived: 122%

## NC(=O)c1cccnc1 [Niacinamide, niacinamide]
Niacinamide 0.5 mM, second series
  Survival: 1.02
Niacinamide 1.5 mM, first series
  Survival: 0.71
  benefit in increasing the survival of stressed dermal papilla cells (in words): little benefit

## CC(C)(CO)[C@@H](O)C(=O)NCCCO [Panthenol, panthenol]
Panthenol 0.03%, first series
  Survival: 1.02
Panthenol 0.3%, second series
  Survival: 0.75
  benefit in increasing the survival of stressed dermal papilla cells (in words): little benefit
